Values quoted from earlier work, collected in patent publication EP2893919B1, “Formulation of aprepitant with enhanced solubility” (SANOFI, priority 2014, dated 2015).

What was measured:
[1] = pH range 2 to 10

C[C@@H](O[C@H]1OCCN(Cc2n[nH]c(=O)[nH]2)[C@H]1c1ccc(F)cc1)c1cc(C(F)(F)F)cc(C(F)(F)F)c1 [Aprepitant, 5-([(2R,3S)-2-((R)-1-[3,5-bis(trifluoromethyl)phenyl]ethoxy)-3-(4-fluorophenyl)morpholino]methyl)-1H-1,2,4-triazol-3(2H)-one]
solubility in water [1]: < 10 µg/mL | Caco-2 permeability (Caco-2): 7.85 ×10⁻⁶ cm/s
